Consider ten molecules from ChEMBL document CHEMBL1150131, “New cytotoxic bis 5-alkylresorcinol derivatives from the leaves of Oncostemon bojerianum from the Madagascar rainforest” (J Nat Prod, 2002).

Each structure is given as a SMILES string. Values after ≈ are worked out from the molar mass of the structure shown.

This assay deals with A2780. The assay is described as follows: Cytotoxicity against human A2780 cells. Type of assay: functional, cell-based.

As a reminder, the IC50 is the midpoint of a concentration-inhibition curve. Read a low IC50 as greater potency in that assay. In turn, `Oc1cc(O)cc(CCCCCCC/C=C\CCCCCCCc2cc(O)cc(O)c2)c1` displayed an IC50 of 10.2 µg/mL (≈ 23.1 µM).

The molecule `Oc1cc(O)cc(CCCCC/C=C\CCCCCCCc2cc(O)cc(O)c2)c1` returned an IC50 of 9.8 µg/mL (≈ 23.8 µM).

Turning to `CC(=O)Oc1cc(O)cc(CCCCCCC/C=C\CCCCCCCc2cc(O)cc(OC(C)=O)c2)c1` [ONCOSTEMONOL A], the IC50 amounted to 9.4 µg/mL (≈ 17.9 µM).

The molecule `CC(=O)Oc1cc(O)cc(CCCCCCC/C=C\CCCCCCCc2cc(O)cc(O)c2)c1` [ONCOSTEMONOL B] had an IC50 of 10.2 µg/mL (≈ 21.1 µM).

As for `COc1cc(O)cc(CCCCCCC/C=C\CCCCCCCc2cc(O)cc(OC)c2)c1` [ONCOSTEMONOL C], the IC50 was 9.8 µg/mL (≈ 20.9 µM).

The molecule `COc1cc(O)cc(CCCCCCC/C=C\CCCCCCCc2cc(O)cc(O)c2)c1` [ONCOSTEMONOL D] had an IC50 of 10 µg/mL (≈ 22 µM).

The molecule `COc1cc(O)cc(CCCCCCC/C=C\CCCCCCCc2cc(OC)cc(OC)c2)c1` [ONCOSTEMONOL E] displayed an IC50 of 9.8 µg/mL (≈ 20.3 µM).

In turn, `CC(=O)Oc1cc(O)cc(CCCCCCCCCCCCCCCCc2cc(O)cc(OC(C)=O)c2)c1` [ONCOSTEMONOL F] came in with an IC50 of 9.5 µg/mL (≈ 18 µM).

`Oc1cc(O)cc(CCCCCCCCC/C=C\CCCCCCCCCc2cc(O)cc(O)c2)c1` [ONCOSTEMONOL G] gave an IC50 of 10.2 µg/mL (≈ 20.5 µM).

Turning to `Oc1cc(O)cc(CCCCCCC/C=C\CCCCCCCCCc2cc(O)cc(O)c2)c1` [ONCOSTEMONOL H], half-maximal inhibition (IC50) was put at 9.4 µg/mL (≈ 20.1 µM).
